One block for each molecule: values may come before it.
Test system: 349418-098-R tumor spheroid viability
Assay: Anticancer human tumor 349418-098-R patient-derived lung adenocarcinoma cell line growth inhibition
Conditions: spheroids with HUVEC and MSC; for viability, T/C: stronger effect = lower value
Procedure, shortened: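 Complex tumor spheroids combined malignant cells with endothelial cells and mesenchymal stem cells. DNA-damaging drugs and DNA repair inhibitors were tested alone and in combination, at half-log dilutions down from clinical Cmax (top 10 microM if Cmax unknown), 0.25% DMSO final.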

[1] = curve of first compound, second compound 0.003 µM
[2] = second compound 0.003 µM, first compound 0.0949 µM
[3] = second compound 0.003 µM, first compound 0.3 µM
[4] = second compound 0.003 µM, first compound 0.949 µM
[5] = second compound 0.003 µM, first compound 3 µM
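Also: spheroids exposed to compound for 7 days before measurement.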
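For viability, T/C in this document: percent of vehicle control viability with 100% = DMSO-treated spheroids.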

Compound: O=C(c1cc(Cc2n[nH]c(=O)c3ccccc23)ccc1F)N1CCN(C(=O)C2CC2)CC1 + COc1cc2c(cc1O)CCNC21CSC2c3c(OC(C)=O)c(C)c4c(c3C(COC1=O)N1C(O)C3Cc5cc(C)c(OC)c(O)c5C(C21)N3C)OCO4
IC50 (curve of first compound, second compound 30 pM): > 30000 nM
IC50 (curve of first compound, second compound 94.9 pM): > 30000 nM
IC50 (curve of first compound, second compound 0.0003 µM): 3700 nM
IC50 (curve of first compound, second compound 0.000949 µM): < 94.9 nM
IC50 [1]: < 94.9 nM
viability, T/C (second compound 30 pM, first compound 0.0949 µM): 122%
viability, T/C (second compound 30 pM, first compound 0.3 µM): 107%
viability, T/C (second compound 30 pM, first compound 0.949 µM): 108%
viability, T/C (second compound 30 pM, first compound 3 µM): 111%
viability, T/C (second compound 30 pM, first compound 9.49 µM): 107%
viability, T/C (second compound 30 pM, first compound 30 µM): 69.6%
viability, T/C (second compound 94.9 pM, first compound 0.0949 µM): 104%
viability, T/C (second compound 94.9 pM, first compound 0.3 µM): 108%
viability, T/C (second compound 94.9 pM, first compound 0.949 µM): 102%
viability, T/C (second compound 94.9 pM, first compound 3 µM): 107%
viability, T/C (second compound 94.9 pM, first compound 9.49 µM): 98.7%
viability, T/C (second compound 94.9 pM, first compound 30 µM): 54.6%
viability, T/C (second compound 0.0003 µM, first compound 0.0949 µM): 94.9%
viability, T/C (second compound 0.0003 µM, first compound 0.3 µM): 87.4%
viability, T/C (second compound 0.0003 µM, first compound 0.949 µM): 79.7%
viability, T/C (second compound 0.0003 µM, first compound 3 µM): 58.9%
viability, T/C (second compound 0.0003 µM, first compound 9.49 µM): 19.3%
viability, T/C (second compound 0.0003 µM, first compound 30 µM): 5.2%
viability, T/C (second compound 0.000949 µM, first compound 0.0949 µM): 0.44%
viability, T/C (second compound 0.000949 µM, first compound 0.3 µM): 0.4%
viability, T/C (second compound 0.000949 µM, first compound 0.949 µM): 0.25%
viability, T/C (second compound 0.000949 µM, first compound 3 µM): 0.25%
viability, T/C (second compound 0.000949 µM, first compound 9.49 µM): 0.15%
viability, T/C (second compound 0.000949 µM, first compound 30 µM): 0.44%
viability, T/C [2]: 1.64%
viability, T/C [3]: 1.88%
viability, T/C [4]: 1.67%
viability, T/C [5]: 2.88%
viability, T/C (second compound 0.003 µM, first compound 9.49 µM): 3.79%
viability, T/C (second compound 0.003 µM, first compound 30 µM): 5.74%

IC50 (compound alone, run of 10/17/2019): 58.3 nM [middle of 5 runs]
IC50 (compound alone, run of 10/25/2019): 43.3 nM [middle of 5 runs]
Compound: CC[C@@]1(O)C(=O)OCc2c1cc1n(c2=O)Cc2cc3c(CN(C)C)c(O)ccc3nc2-1
viability, T/C (compound 0.003 µM): 99.8% [middle of 10 runs]
viability, T/C (compound 0.00949 µM): 97.5% [middle of 10 runs]
viability, T/C (compound 0.03 µM): 77.6% [middle of 10 runs]
viability, T/C (compound 0.0949 µM): 19.6% [middle of 10 runs]
viability, T/C (compound 0.3 µM): 4.75% [middle of 10 runs]

Compound: CNCc1ccc(-c2cc(-c3nc(-c4ccc(S(=O)(=O)C(C)C)cc4)cnc3N)on2)cc1 + CC[C@@]1(O)C(=O)OCc2c1cc1n(c2=O)Cc2cc3c(CN(C)C)c(O)ccc3nc2-1
IC50 [1]: 202 nM
IC50 (curve of first compound, second compound 0.00949 µM): 160 nM
IC50 (curve of first compound, second compound 0.03 µM): 147 nM
IC50 (curve of first compound, second compound 0.0949 µM): < 9.49 nM
IC50 (curve of first compound, second compound 0.3 µM): < 9.49 nM
viability, T/C (second compound 0.003 µM, first compound 0.00949 µM): 106%
viability, T/C (second compound 0.003 µM, first compound 0.03 µM): 96.8%
viability, T/C [2]: 95%
viability, T/C [3]: 26.4%
viability, T/C [4]: 6.42%
viability, T/C [5]: 1.25%
viability, T/C (second compound 0.00949 µM, first compound 0.00949 µM): 103%
viability, T/C (second compound 0.00949 µM, first compound 0.03 µM): 96.3%
viability, T/C (second compound 0.00949 µM, first compound 0.0949 µM): 78.2%
viability, T/C (second compound 0.00949 µM, first compound 0.3 µM): 15.9%
viability, T/C (second compound 0.00949 µM, first compound 0.949 µM): 6.27%
viability, T/C (second compound 0.00949 µM, first compound 3 µM): 0.63%
viability, T/C (second compound 0.03 µM, first compound 0.00949 µM): 89.1%
viability, T/C (second compound 0.03 µM, first compound 0.03 µM): 83.9%
viability, T/C (second compound 0.03 µM, first compound 0.0949 µM): 74.5%
viability, T/C (second compound 0.03 µM, first compound 0.3 µM): 10.1%
viability, T/C (second compound 0.03 µM, first compound 0.949 µM): 3.96%
viability, T/C (second compound 0.03 µM, first compound 3 µM): 0.78%
viability, T/C (second compound 0.0949 µM, first compound 0.00949 µM): 25.5%
viability, T/C (second compound 0.0949 µM, first compound 0.03 µM): 22%
viability, T/C (second compound 0.0949 µM, first compound 0.0949 µM): 12.8%
viability, T/C (second compound 0.0949 µM, first compound 0.3 µM): 4.56%
viability, T/C (second compound 0.0949 µM, first compound 0.949 µM): 3.43%
viability, T/C (second compound 0.0949 µM, first compound 3 µM): 0.31%
viability, T/C (second compound 0.3 µM, first compound 0.00949 µM): 3.32%
viability, T/C (second compound 0.3 µM, first compound 0.03 µM): 4.32%
viability, T/C (second compound 0.3 µM, first compound 0.0949 µM): 3.68%
viability, T/C (second compound 0.3 µM, first compound 0.3 µM): 3.02%
viability, T/C (second compound 0.3 µM, first compound 0.949 µM): 2.18%
viability, T/C (second compound 0.3 µM, first compound 3 µM): 0.36%

From PubChem BioAssay AID1845197 (Molecular Pharmacology Branch, DTP, NCI, 2023)
